In patent US9932317B2, “Quinazoline compounds and their use in therapy” (Imperial Innovations Limited, priority 2012, dated 2018):

Legend:
[1] = system: EZH2 target genes (KRT17, FBXO32) in MDA-MB-231 cells; assay: Real-time RT-PCR cell based assay for up-regulation of H3K27me3 silenced genes
Source text: In order to monitor the reversal of epigenetic silencing associated with H3K27me3, a cell based assay was established using the breast-cancer cell line MDA-MB-231 for which EZH2 expression levels as well as EZH2 target genes have been characterised (17). For initial characterisation of compound activity two genes (KRT17, FBXO32) were selected which are primarily silenced by H3K27me3 in combination with H3K9me2/3 but are not DNA methylated. Furthermore, the DNA methylated gene (RUNX3) was selected to control for effects at loci that are silenced by H3K27me3 in combination with CpG island DNA methylation. The two enzymes which perform H3K27 methylation (EZH2) and demethylation (JMJD3) were also included. Cell death can lead to the down-regulation of EZH2 and up-regulation of JMJD3 in cells (36) and is therefore important to control for indirect effects due to cell death in such a cell-based assay.
In order to identify compounds which can mediate the reactivation of PRC2 silenced genes, MDA-MB-231 cells were treated for 48 h at a concentration of 10 μM of Example compounds 3 (HKMTi-1-005), 4 (HKMTi-1-022) or 5 (HKMTi-1-011), as well as with the comparative examples BIX-01294 or UNC0224, and mRNA levels of KRT17, FBXO32, RUNX3, as well as EZH2 and JMJD3 were measured by real-time RT-PCR. The data were normalised against the housekeeping gene GAPDH as well as RNA pol II (only results for GAPDH are shown, although consistent results were obtained with RNA pol II normalisation). […] The reported G9a/GLP specific inhibitors BIX01294 and UNC0224 have a very different activity profile on gene expression.
(§1) To characterise example compounds 3 (HKMTi-1-005), 4 (HKMTi-1-022) and 5 (HKMTi-1-011) further, MDA-MB-231 cells were treated for 48 h and 72 h at various concentrations (FIGS. 1d and e). […] At higher doses of compounds cell death started to occur, particularly at 72 h, which coincides with a dramatic drop in GAPDH levels. At these doses, expression of KRT17 was often below the detection limit of low-expressed genes due to cell death (indicated as “*” in FIGS. 1d and e). Independently synthesised batches of Example compounds 3 (HKMTi-1-005), 4 (HKMTi-1-022) and 5 (HKMTi-1-011) were prepared and assessed to ensure reproducibility of our results and indeed confirmed that those compounds could induce gene re-expression of KRT17 and FBXO32.
Cell culture and compound treatment: MDA-MB-231, T47D, MCF7, BT474, BT549 and SKBR3 breast cancer cell lines were cultured in DMEM-Medium supplemented with 10% FCS (#02.00.830, First Link (UK), 2 mM L-Glutamine (#25030-024, Invitrogen), 100 U/ml Penicillin and 100 μg/ml Streptavidin (#15070-063, Invitrogen) until they were ˜60% confluent and then treated for either 48 h or 72 h with a compound. Compounds were diluted in DMSO at Stocks of 10 mM. MCF-10a breast cell lines were cultured in DMEM/F12-Medium supplemented with 5% horse serum, EGF (20 ng/ml), Hydrocortizone ([…]), Cholera Toxin (100 ng/ml), Insulin (10 μg/ml) as well as 100 U/ml Penicillin and 100 μg/ml Streptavidin (#15070-063, Invitrogen). For MTT experiments, cells were either kept in DMEM/F12 growth medium or in normal DMEM-Medium to mimic the ‘normal’ non-dividing cell state.
Following compound treatment for 48 h (in 6-well plates), media was removed and 1.5 ml of TRIzol (#155966018, Invitrogen) was added directly to lyse cells. Once cells were lysed, the protocol was continued with 1 ml (TRIzol, cell lysate) according to the manufactures instructions. Purified RNA was dissolved in 35 μl of UltraPure DNase/RNase-free distilled water (#10977049, Invitrogen). Reverse transcription was done using the SuperScript III First-Strand Synthesis System (#18080-051, Invitrogen) according to the manufactures instructions, using 7 μl of the purified RNA as starting material. For real-time measurements the 2×iQ SYBR Green Supermix (#170-8882, Bio-Rad), 200 nM Primers and 0.4 μl of cDNA/per 20 μl reaction was used. […]

[2] = system: histone marks at KRT17 and FBXO32 promoter region in MDA-MB-231 cells; assay: Chromatin Immunoprecipitation (ChIP) at KRT17 and FBXO32 promoter; type: cell-based; conditions: MDA-MB-231, 5 μM, 72 h
Description: The fold difference to the untreated sample is shown. Each IP-value has been determined as the relative increase to the no-antibody control and then normalised to GAPDH levels.
(§2) Chromatin Immunoprecipitation (ChIP) experiments were carried out on treated MDA-MB-231 cells to verify that the detected gene up-regulation is indeed due to chromatin remodelling (FIG. 2). For this, typical silencing marks such as H3K9me3 and H3K27me3 were tested as well as activating marks such as H3K4me3, H3K27ac and H3K9ac. […] It should be noted that greater than 50% cell death is observed for compound 5 (HKMTi-1-011) at this concentration, but not for the others, and the changes observed in histone marks for compound 5 (HKMT-1-011) may reflect ongoing cell death.
ChIP was accomplished using Dynabeads Protein A (Invitrogen #100-01D.) according to (41), except that following the Chelex-DNA purification an additional purification with QIAquick PCR Purification Kit (#28106, Qiagen) was carried out, here the ChIP-products were eluted in 50 μl and for subsequent real-time measurements (as described above) 1.5 μl per reaction was used. The list of Primers can be found in FIG. 7 (Supplementary Table 2).

[3] = reported; cited from earlier work
[4] = system: MDA-MB-231 cells; assay: Cell death of treated MDA-MB-231 cells; type: cell-based; conditions: MDA-MB-231, concentration of the ChIP experiment (5 μM, 72 h)
Description: as §1
as §2, with “death. […]” for “death.”

[5] = system: EZH2 target genes in MDA MB-231 cells; assay: Agilent two-colour gene expression microarrays, enrichment of EZH2 target genes; type: cell-based; conditions: MDA MB-231, 10 μM
Description: Agilent two-colour microarrays were used to profile gene expression changes induced 24 h and 48 h after 10 μM treatment with example compound 3 (HKMTi-1-005) compared to compound HKMTi-1-012. […] Many of these EZH2 target genes are clearly differentially expressed following treatment with example compound 3 (HKMTi-1-005) compared to compound HKMTi-1-012, as shown in Table 2 in FIG. 5. Statistical enrichment of EZH2-target genes (Lee et al 2011) in the lists of differentially expressed genes was evaluated using the hypergeometric distribution. Example compound 3 (HKMTi-1-005) results in significant upregulation (p=3.3^−33 at 24 h and p=3.2^−21 at 48 h) and significant down-regulation (p=3.5^−37 at 24 h and p=3.8^−61 at 48 h) of EZH2 target genes. […]
Normalised log 2 gene expression ratios were analysed using LIMMA (Smyth 2004) to obtain empirical Bayes moderated t-statistics reflecting statistical significance of differential expression across the 4 replicates for each drug, time combination. […]
Statistical significance of overlap between these lists of EZH2 targets and the genes differentially expressed upon drug treatment in our microarray study was assessed using the hypergeometric distribution.

[6] = MDA-MB-231, 10 μM, 48 h, normalised to GAPDH
[7] = MDA-MB-231, various concentrations, 48 h and 72 h

Structure (SMILES) | FBXO32 RNA levels [1, 6] | KRT17 RNA levels [1, 6] | gene expression profile in the cell assay (KRT17, FBXO32, RUNX3) ([1]; MDA-MB-231, 10 μM, compared with example compounds 3, 4 and 5) | EZH2 mRNA level [1, 7] | FBXO32 mRNA level [1, 7] | JMJD3 mRNA level [1, 7] | KRT17 mRNA level [1, 7] | RUNX3 expression [1, 7] | RUNX3 expression [1, 6] | JMJD3 binding [2] | permissive chromatin marks (H3K4me3, H3K4me2, H3K9ac, H3K27ac) [2] | repressive chromatin marks (H3K27me3, H3K9me3) at KRT17 and FBXO32 [2] | permissive chromatin marks (H3K4me3, H3K4me2, H3K9ac, H3K27ac) ([2]; listed as HKMT-1-022) | separation of functional potency and cell toxicity [3] | cell death [4] | functional enrichment of changed pathways (DAVID) [5]
COc1cc2c(NC3CCN(C)CC3)nc(N3CCCN(C)CC3)nc2cc1OCCCN(C)C [UNC0224, reference compound] | very little effect | very little effect | very little effect | – | – | – | – | – | – | – | – | – | – | – | – | –
Nc1nccc2c1ncn2C1C=C(CO)C(O)C1O (stereo not drawn) [DZNep, reference compound] | – | – | – | unaffected | unaffected | unaffected | consistently up-regulated | increased under certain conditions although not in a dose dependent manner | – | – | – | – | – | – | – | –
COc1cc2nc(N3CCCCC3)nc(NC3CCN(Cc4ccccc4)CC3)c2cc1OC [HKMTi-1-022] | up-regulate | up-regulate | – | – | increase in a dose dependent manner | increase in a dose dependent manner | increase in a dose dependent manner | – | not effecting | increase | increase of the activating marks H3K4me3, H3K27ac and H3K9ac | clear decrease | concomitant increase in all permissive chromatin marks examined | – | – | –
COc1cc2nc(N3CCCN(C)CC3)nc(NC3CCN(Cc4ccccc4)CC3)c2cc1OC [BIX-01294, reference compound] | does up-regulate | does not up-regulate | – | – | – | – | – | – | – | – | – | – | – | poor separation of functional potency and cell toxicity | – | –
COc1cc2nc(N3CCN(c4ccccn4)CC3)nc(NC3CCN(Cc4ccccc4)CC3)c2cc1OC [HKMTi-1-011] | up-regulate | up-regulate | – | – | increase in a dose dependent manner | increase in a dose dependent manner | increase in a dose dependent manner | – | not effecting | – | increase in most permissive marks | clear decrease | – | – | greater than 50% | –
COc1cc2nc(N3CCN(C)CC3)nc(NC3CCN(Cc4ccccc4)CC3)c2cc1OC [HKMTi-1-005] | up-regulate | up-regulate | – | – | dose-dependent increase | dose-dependent increase | dose-dependent increase | – | not effecting | – | increase in most permissive marks | clear decrease | – | – | – | upregulation of apoptosis genes and the lysosome pathway, and a downregulation of a number of processes related to cell cycle & cell division
